Experimental data published in ChEMBL document CHEMBL3407414, “Discovery of AZD3147: a potent, selective dual inhibitor of mTORC1 and mTORC2” (J Med Chem, 2015).

Assays:
[1] = Lipophilicity, log D of the compound; type: physicochemical; settings: octanol/water
[2] = tested on: human MDR1; assay: Apparent permeability from apical to basolateral side of MDCK2 cells expressing human MDR1 at 10 uM; type: ADME, cell-based, Canis lupus familiaris, MDCK-II; settings: dog, MDCK-MDR1
[3] = tested on: human MDR1; assay: Apparent permeability from basolateral to apical side of MDCK2 cells expressing human MDR1 at 10 uM; type: ADME, cell-based, Canis lupus familiaris, MDCK-II; settings: dog, MDCK-MDR1
[4] = Intrinsic clearance in human hepatocytes assessed per million cells; type: ADME, cell-based, Hepatocyte; settings: read-out: CLH
[5] = Oral bioavailability in Beagle dog at 3 to 10 umol/kg; type: ADME, organism-based, Canis lupus familiaris; settings: in vivo
[6] = Volume of distribution at steady state in Beagle dog; type: ADME, organism-based, Canis lupus familiaris; settings: in vivo, read-out: Vdss
[7] = Clearance in Beagle dog at 1 to 3 umol/kg, iv; type: ADME, organism-based, Canis lupus familiaris; settings: in vivo
[8] = Oral bioavailability in CD-1 mouse at 5 to 20 umol/kg; type: ADME, organism-based; settings: in vivo
[9] = Half life in Beagle dog; type: ADME, organism-based, Canis lupus familiaris; settings: in vivo
[10] = Half life in CD-1 mouse; type: ADME, organism-based; settings: in vivo
[11] = Clearance in CD-1 mouse at 2.5 to 10 umol/kg, iv; type: ADME, organism-based; settings: in vivo
[12] = Volume of distribution at steady state in CD-1 mouse; type: ADME, organism-based; settings: in vivo, read-out: Vdss

| Compound | logD [1] | also measured |
| --- | --- | --- |
| CS(=O)(=O)Cc1cc(N2CCOCC2)nc(-c2ccc(NC(=O)Nc3ccc(F)cc3)cc2)n1 | > 3.2 |  |
| C[C@H]1COCCN1c1cc(C2(S(=O)(=O)c3ccccc3)CC2)nc(-c2ccc(NC(=O)NCCO)cc2)n1 | 2.8 | Papp A→B at 10 µM [2]: 0.18 ×10⁻⁶ cm/s; Papp B→A at 10 µM [3]: 24 ×10⁻⁶ cm/s |
| C[C@H]1COCCN1c1cc(C2(S(=O)(=O)c3ccc(F)cc3)CC2)nc(-c2ccc(NC(=O)NCCO)cc2)n1 | 3.01 |  |
| COc1ccc(CNC(=O)Nc2ccc(-c3nc(CS(C)(=O)=O)cc(N4CCOC[C@@H]4C)n3)cc2)cc1 | 2.8 |  |
| C[C@H]1COCCN1c1cc(C2(S(=O)(=O)c3ccccc3)CC2)nc(-c2ccc(NC(=O)NCCCO)cc2)n1 | 2.85 | Papp A→B at 10 µM [2]: 0.15 ×10⁻⁶ cm/s; Papp B→A at 10 µM [3]: 31 ×10⁻⁶ cm/s |
| C[C@H]1COCCN1c1cc(C2(S(=O)(=O)CCCO)CC2)nc(-c2ccc(NC(=S)NCCO)cc2)n1 | 1.6 |  |
| CNC(=O)Nc1ccc(-c2nc(CS(=O)(=O)c3ccccc3)cc(N3CCOC[C@@H]3C)n2)cc1 | 2.65 |  |
| CNC(=O)Nc1ccc(-c2nc(CS(C)(=O)=O)cc(N3CCOC[C@@H]3C)n2)cc1C | 1.5 |  |
| CNC(=O)Nc1ccc(-c2nc(CS(C)(=O)=O)cc(N3CCOC[C@@H]3C)n2)cc1OC | 1.79 |  |
| C[C@H]1COCCN1c1cc(CS(C)(=O)=O)nc(-c2ccc(NC(=O)Nc3ccccc3)cc2)n1 | 3.3 |  |
| C[C@H]1COCCN1c1cc(CS(C)(=O)=O)nc(-c2ccc(NC(=O)Nc3ccc(F)cc3)cc2)n1 | 3.8 |  |
| CNC(=O)Nc1ccc(-c2nc(CS(=O)(=O)c3ccncc3)cc(N3CCOC[C@@H]3C)n2)cc1 | 2.1 |  |
| C[C@H]1COCCN1c1cc(C2(S(C)(=O)=O)CC2)nc(-c2ccc(NC(=S)NCCO)cc2)n1 | 1.78 | Papp A→B at 10 µM [2]: 0.07 ×10⁻⁶ cm/s; Papp B→A at 10 µM [3]: 17 ×10⁻⁶ cm/s |
| COc1ccc(NC(=O)Nc2ccc(-c3nc(CS(C)(=O)=O)cc(N4CCOC[C@@H]4C)n3)cc2)cc1 | 2.88 |  |
| CNC(=O)Nc1ccc(-c2nc(N3CCOC[C@@H]3C)cc(C(C)(C)S(C)(=O)=O)n2)cc1 |  | hepatocyte CLint [4]: 36.3 µL/min/1e6 cells |
| CNC(=O)c1cccc(-c2ccc3c(N4CCOC[C@@H]4C)nc(N4CCOC[C@@H]4C)nc3n2)c1 [VISTUSERTIB] |  | hepatocyte CLint [4]: < 4.2 µL/min/1e6 cells |
| CNC(=O)Nc1ccc(-c2nc(N3CCOC[C@@H]3C)cc(C3(S(=O)(=O)c4ccncc4)CC3)n2)cc1 | 2.5 |  |
| C[C@H]1COCCN1c1cc(C2(S(=O)(=O)C3CC3)CC2)nc(-c2ccc(NC(=S)NCCO)cc2)n1 | 2.1 | bioavailability [5]: 73%; Vd [6]: 2 L/kg; clearance [7]: 16 mL/min/kg; bioavailability [8]: 61%; half-life [9]: 1.9 h; Papp A→B at 10 µM [2]: 5.6 ×10⁻⁶ cm/s; Papp B→A at 10 µM [3]: 43 ×10⁻⁶ cm/s; half-life [10]: 0.9 h; clearance [11]: 8 mL/min/kg; Vd [12]: 2.3 L/kg |

The next lines start with results.

| logD [1] | Compound | also measured |
| --- | --- | --- |
| 1.93 | CCNC(=O)Nc1ccc(-c2nc(CS(C)(=O)=O)cc(N3CCOC[C@@H]3C)n2)cc1 |  |
| 2.8 | C[C@H]1COCCN1c1cc(C2(S(C)(=O)=O)CCOCC2)nc(-c2ccc(NC(=O)NC3CC3)cc2)n1 |  |
| 1.85 | C[C@H]1COCCN1c1cc(CS(C)(=O)=O)nc(-c2ccc(NC(=O)Nc3cnn(C)c3)cc2)n1 |  |
| 2 | CNC(=O)Nc1ccc(-c2nc(CS(=O)(=O)C3CC3)cc(N3CCOC[C@@H]3C)n2)cc1 |  |
| 2.45 | CC(C)NC(=O)Nc1ccc(-c2nc(CS(C)(=O)=O)cc(N3CCOC[C@@H]3C)n2)cc1 |  |
| 1 | C[C@H]1COCCN1c1cc(CS(C)(=O)=O)nc(-c2ccc(NC(=O)NCCO)cc2)n1 |  |
| 2.62 | C[C@H]1COCCN1c1cc(C2(S(C)(=O)=O)CC2)nc(-c2ccc(NC(=O)NC3CC3)cc2)n1 | hepatocyte CLint [4]: 37.8 µL/min/1e6 cells |
| 1.7 | C[C@H]1COCCN1c1cc(CS(=O)(=O)CCCO)nc(-c2ccc(NC(=O)NC3CC3)cc2)n1 |  |
| 2.94 | C[C@H]1COCCN1c1cc(C2(S(=O)(=O)C3CC3)CC2)nc(-c2ccc(NC(=O)NC3CC3)cc2)n1 |  |
| 2.1 | C[C@H]1COCCN1c1cc(C2(S(=O)(=O)C3CC3)CC2)nc(-c2ccc(NC(=O)NCCO)cc2)n1 |  |
| 1.54 | CNC(=O)Nc1ccc(-c2nc(CS(C)(=O)=O)cc(N3CCOC[C@@H]3C)n2)cc1 |  |
| 2.4 | C[C@H]1COCCN1c1cc(C2(S(C)(=O)=O)CCC2)nc(-c2ccc(NC(=O)NCCO)cc2)n1 |  |
| 1.9 | C[C@H]1COCCN1c1cc(CS(C)(=O)=O)nc(-c2ccc(NC(=O)NC3CC3)cc2)n1 |  |
| 2.2 | C[C@H]1COCCN1c1cc(C2(S(=O)(=O)CCCO)CC2)nc(-c2ccc(NC(=S)NC3CC3)cc2)n1 | Papp A→B at 10 µM [2]: 0.18 ×10⁻⁶ cm/s; Papp B→A at 10 µM [3]: 22 ×10⁻⁶ cm/s |
| 2.4 | C[C@H]1COCCN1c1cc(C2(S(=O)(=O)CCCO)CC2)nc(-c2ccc(NC(=O)NC3CC3)cc2)n1 |  |
| 0.3 | C[C@H]1COCCN1c1cc(CS(C)(=O)=O)nc(-c2ccc(NC(=O)NCCN(C)C)cc2)n1 |  |
| 1.74 | C[C@H]1COCCN1c1cc(CS(C)(=O)=O)nc(-c2ccc(NC(=S)NC3CC3)cc2)n1 |  |
| > 3.4 | C[C@H]1COCCN1c1cc(C2(S(C)(=O)=O)CCCC2)nc(-c2ccc(NC(=O)NC3CC3)cc2)n1 |  |
| 2.15 | C[C@H]1COCCN1c1cc(C(C)(C)S(C)(=O)=O)nc(-c2ccc(NC(=S)NCCO)cc2)n1 |  |
| 2.62 | C[C@H]1COCCN1c1cc(C(C)(C)S(C)(=O)=O)nc(-c2ccc(NC(=O)NC3CC3)cc2)n1 | hepatocyte CLint [4]: 50 µL/min/1e6 cells |
| 3.3 | C[C@H]1COCCN1c1cc(C2(S(C)(=O)=O)CCC2)nc(-c2ccc(NC(=O)NC3CC3)cc2)n1 |  |
| 3.6 | CNC(=O)Nc1ccc(-c2nc(CS(=O)(=O)C3CCCCC3)cc(N3CCOC[C@@H]3C)n2)cc1 |  |
